This note sets out measurements from patent EP0573253B1, “Topical anti-bacterial composition” (UNILEVER PLC, priority 1992, dated 1993).

One test has as its system Propionibacterium acnes. Put plainly: Agar dilution test, minimum inhibitory concentration. To be noted: Trypticase Soy Agar II plates. The test is classed as cell-based. On the procedure: (§1) Standard agar dilution tests in order to establish the minimum inhibitory concentration (% v/v) for C6 acyl lactylate, C8 acyl lactylate and C12 acyl lactylate were performed both in the presence and the absence of a lipid on the following micro-organisms: • 1. Propionibacterium acnes • 2. Staphylococcus aureus • 3. Escherichia coli • 4. Candida albicans
(§2) Control experiments were performed employing benzoyl peroxide and erthyromycin.
(§3) The present tests were performed using Trypticase Soy Agar II incorporation plates with and without 10% intralipid, supplied by Kabi Pharmacia Inc. In each case the lactylate being tested was used at a starting concentration of 10,000 ug/ml.
For orientation: Agar dilution tests growth on a series of plates holding different concentrations.

The subject of the next test is Staphylococcus aureus. Described as above. The test is classed as cell-based. To be noted: for MINIMUM INHIBITORY CONCENTRATION: Trypticase Soy Agar II plates. How it is done:
as §1, §2, §3

The test system of the next test is Candida albicans. The description is as above. The test is classed as cell-based. To be noted: for MINIMUM INHIBITORY CONCENTRATION: Trypticase Soy Agar II plates. How it is done: as §1, §2, §3
The test system of another test is Escherichia coli. The test is described as above. The test is classed as cell-based. To be noted: for MINIMUM INHIBITORY CONCENTRATION: Trypticase Soy Agar II plates; for inhibitory against gram-negative bacteria: text summary of Table II, lipid condition not stated. On the procedure:
as §1, §2, §3

A further test relates to rate of hair loss. The test is described as follows: Reduction of the rate of hair loss, panel of human volunteers (brushing and hair count). The format is in vivo. To be noted: human panellists, about 3 ml applied to the scalp daily at night, compared with placebo composition B; Student t-test. On the procedure: The effect of selected acyl lactylates, as herein defined, on reducing the rate of hair loss was assessed using a panel of human volunteers.
Each panellist was requested to brush his or her hair immediately on getting out of bed in the morning before other grooming took place. The hair brushing consisted of ten vigorous strokes over the entire head from front to back, ten strokes from back to front and then ten strokes from each side to the opposite side. Brushing was carried out over a towel or other light cloth to collect any hairs that fell. In addition, all the hairs on the brush were removed with forceps. The total number of hair collected each day was counted. Panellists were requested to continue with their routine hair shampooing and grooming techniques as usual, the only change to this routine being the application of products in accordance with the invention or corresponding control or placebo products.
During the first month, each panellist carried out only the standard brushing, collecting and counting of hairs lost to provide a basis for comparison later. For the second and third months, the scalp was treated by adding the test or placebo compositions in addition to the standard brushing technique as previously described. […]
The results were analysed by the standard Student t-test.

The mark [1] stands for this setting: text summary of Table II, lipid condition not stated.

As to `O=C(OOC(=O)c1ccccc1)c1ccccc1` [Benzoyl Peroxide, benzoyl peroxide, reference compound], the “MINIMUM INHIBITORY CONCENTRATION” value with Propionibacterium acnes (Lipid (10% intralipid)) is listed as 0.06 % V/V; in the test with Propionibacterium acnes (No Lipid), 0.25 % V/V; in the test on Staphylococcus aureus (Lipid (10% intralipid)) it was 0.12 % V/V; in the test on Staphylococcus aureus (No Lipid), 0.25 % V/V; in the test with Candida albicans (Lipid (10% intralipid)) it was 0.12 % V/V; in the test with Candida albicans (No Lipid), 0.25 % V/V. For the same molecule, the “MINIMUM INHIBITORY CONCENTRATION” value in the test on Escherichia coli (Lipid (10% intralipid)) turned out to be 0.12 % V/V; in the test with Escherichia coli (No Lipid), 0.25 % V/V.
With `CC[C@H]1OC(=O)[C@H](C)[C@@H](O[C@H]2C[C@@](C)(OC)[C@@H](O)[C@H](C)O2)[C@H](C)[C@@H](O[C@@H]2O[C@H](C)C[C@H](N(C)C)[C@H]2O)[C@](C)(O)C[C@@H](C)C(=O)[C@H](C)[C@@H](O)[C@]1(C)O` [Erthyromycin, erthyromycin, reference compound], the “MINIMUM INHIBITORY CONCENTRATION” value was <1.9 x 10^-5 % V/V with Propionibacterium acnes (Lipid (10% intralipid)); <1.9 x 10^-5 % V/V with Propionibacterium acnes (No Lipid); 3.1 x 10^-4 % V/V in the test on Staphylococcus aureus (Lipid (10% intralipid)); 3.1 x 10^-4 % V/V with Staphylococcus aureus (No Lipid); 0.01 % V/V with Candida albicans (Lipid (10% intralipid)); 0.01 % V/V with Candida albicans (No Lipid). The “MINIMUM INHIBITORY CONCENTRATION” value with Escherichia coli (Lipid (10% intralipid)) and in the test on Escherichia coli (No Lipid) was 0.01 % V/V in each case.
On to C6 acyl lactylate [C6 Lactylate], for which the “MINIMUM INHIBITORY CONCENTRATION” value was 0.5 % V/V in the test with Propionibacterium acnes (Lipid (10% intralipid)); “pH Effect” in the test with Propionibacterium acnes (No Lipid); “pH Effect” in the test on Staphylococcus aureus (Lipid (10% intralipid)); “" "” with Staphylococcus aureus (No Lipid); “" "” with Candida albicans (Lipid (10% intralipid)); “" "” in the test with Candida albicans (No Lipid). In addition, the “MINIMUM INHIBITORY CONCENTRATION” value in the test on Escherichia coli (Lipid (10% intralipid)) and in the test on Escherichia coli (No Lipid) was “" "” in each case.
For the molecule C8 acyl lactylate [C8 Lactylate], the “MINIMUM INHIBITORY CONCENTRATION” value was determined as 0.5 % V/V in the test on Propionibacterium acnes (Lipid (10% intralipid)); 0.25 % V/V in the test with Propionibacterium acnes (No Lipid); 0.5 % V/V in the test on Staphylococcus aureus (Lipid (10% intralipid)); 0.5 % V/V in the test with Staphylococcus aureus (No Lipid); 1.0 % V/V in the test on Candida albicans (Lipid (10% intralipid)); 1.0 % V/V in the test with Candida albicans (No Lipid). Also, the “MINIMUM INHIBITORY CONCENTRATION” value in the test with Escherichia coli (Lipid (10% intralipid)) and in the test with Escherichia coli (No Lipid) was 1.0 % V/V each time. Besides, the “inhibitory against gram-negative bacteria” value in the test on Escherichia coli was determined as 1 % v/v.
Take C12 acyl lactylate [C12 Lactylate]: the “MINIMUM INHIBITORY CONCENTRATION” value was 0.25 % V/V with Propionibacterium acnes (Lipid (10% intralipid)); 0.00039 % V/V in the test with Propionibacterium acnes (No Lipid); 0.5 % V/V in the test on Staphylococcus aureus (Lipid (10% intralipid)); 0.06 % V/V in the test on Staphylococcus aureus (No Lipid); greater than 1.0 % V/V in the test on Candida albicans (Lipid (10% intralipid)); greater than 1.0 % V/V in the test on Candida albicans (No Lipid). For the same molecule, the “MINIMUM INHIBITORY CONCENTRATION” value in the test on Escherichia coli (Lipid (10% intralipid)) and in the test on Escherichia coli (No Lipid) was greater than 1.0 % V/V in each case. For the same molecule, the “inhibitory to gram-positive bacteria” value in the test with Staphylococcus aureus (setting [1]) was determined as 0.0625 % v/v. In addition, the “inhibitory effect against yeast” value with Candida albicans (setting [1]) is recorded as greater than 1 % v/v. Also, in the test with Escherichia coli, the “inhibitory against gram-negative bacteria” value was greater than 1 % v/v. Moreover, the “reduction in the rate of loss of hair” value with rate of hair loss was “significantly reduced”.
